EP4464708A1, “NEW CONTRAST AGENTS FOR USE IN DIAGNOSTIC IMAGING” (Bayer Aktiengesellschaft, priority 2023, dated 2024)

Assay: Relaxivity measurements at 1.4 T
Type: physicochemical
Settings: 1.41 T (60 MHz), 37°C, normalized to Mn
Protocol: T1 and T2 relaxation time were measured at 60 MHz (1.41 T) and 37°C using a Bruker mq60 minispec contrast agent analyzer. Manganese containing chelates were dissolved in different media at and each relaxivity measurement was performed using three different Mn concentrations. Measurement of r1 and r2 relaxivities were performed using concentrations of 0, 0.25, 0.5 and 1mM Mn in water and human plasma containing heparin as anticoagulant. The relaxivities ri (where i=1, 2) were calculated based on the measured relaxation rates Ri in water and plasma: ri = (Ri−Ri(0))/CMn [formula] where Ri(0) represent the relaxation rate of the respective solvent and CMn the concentration of the compound normalized to Manganese. The Manganese concentrations of the investigated solutions were verified by Inductively Coupled Plasma Mass Spectrometry (ICP-MS Agilent 7500a, Waldbronn, Germany). Table 1: Relaxivities of investigated compound in water and human plasma at 1.41 T. All values are measured at 37°C and normalized to Mn and given in L mmol-1 s-1.

SMILES: O=C(CCC(C(=O)[O-])N1CCOCCN(C(CCC(=O)NC[C@H](O)[C@@H](O)[C@H](O)[C@H](O)CO)C(=O)[O-])Cc2cccc(n2)C1)NC[C@H](O)[C@@H](O)[C@H](O)[C@H](O)CO.[Mn+2] (stereo partly drawn) [Example 2, manganese(^2+) 2-[9-(1-carboxylato-4-oxo-4-{[(2S,3R,4R,5R)-2,3,4,5,6-pentahydroxyhexyl]amino}butyl)-6-oxa-3,9,15-triazabicyclo[9.3.1]pentadeca-1(15),11,13-trien-3-yl]-5-oxo-5-{[(2S,3R,4R,5R)-2,3,4,5,6-pentahydroxyhexyl]amino}pentanoate]
- r1 (human plasma (heparin as anticoagulant)): 6.4 L mM^-1s^-1
- r1 (water): 5.0 L mM^-1s^-1
